# Reference: paper PMC3601546 (Bioorganic & medicinal chemistry letters, 2012)
# Biological target: T1, human NPBWR1 (Homo sapiens, UniProt P48145)
# T1 sequence (P48145 1-328): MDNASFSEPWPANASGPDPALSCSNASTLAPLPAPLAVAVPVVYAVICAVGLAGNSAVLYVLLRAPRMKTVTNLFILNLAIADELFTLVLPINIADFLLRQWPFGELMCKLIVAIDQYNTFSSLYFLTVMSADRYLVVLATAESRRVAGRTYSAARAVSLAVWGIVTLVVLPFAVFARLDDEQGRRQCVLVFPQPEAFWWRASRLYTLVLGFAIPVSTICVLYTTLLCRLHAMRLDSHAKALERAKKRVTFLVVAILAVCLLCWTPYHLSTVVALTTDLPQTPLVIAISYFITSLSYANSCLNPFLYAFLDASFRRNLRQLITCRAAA
# Experiment: NPBWR1 antagonist calcium release
# Format: cell-based
# Conditions: not given
row,SMILES,NPBWR1 antagonist activity in words
1,COc1ccc(Oc2c(N)cnn(-c3ccc(C(C)C)cc3)c2=O)cc1 [9p],Total loss of potency
2,COc1ccc(Oc2ccnn(-c3ccc(C(C)C)cc3)c2=O)cc1 [9o],Total loss of potency
3,COc1ccc(Oc2c(NC(C)=O)cnn(-c3ccc(C(C)C)cc3)c2=O)cc1 [9q],Total loss of potency
4,COc1ccc(Oc2c(-c3ccccc3)cnn(-c3ccc(C)cc3)c2=O)cc1 [9d],drastic loss in potency
5,COc1ccc(Oc2c(C(=O)O)cnn(-c3ccc(C(C)C)cc3)c2=O)cc1 [9m],inactive
6,COc1ccc(Oc2c(Cl)c(C(=O)O)nn(-c3ccc(C(C)C)cc3)c2=O)cc1 [9t],Total loss of activity

# Same assay, conditions: ratio of NPBWR1 IC50 vs 1a
row,SMILES,fold more potent than the hit 1a
1,Cc1ccc(-n2ncc(Cl)c(Oc3ccc(C(F)(F)F)cc3)c2=O)cc1 [6e],2- to 3 fold
2,COc1ccc(Oc2c(Cl)cnn(-c3ccc(C)c(C)c3)c2=O)cc1 [1s],~ fourfold

# Same assay, conditions: ratio of NPBWR1 IC50 vs 1j
row,SMILES,fold less potent than 1j
1,COC(=O)c1cnn(-c2ccc(C(C)C)cc2)c(=O)c1Oc1ccc(OC)cc1 [9n],10 fold
2,COC(=O)c1nn(-c2ccc(C(C)C)cc2)c(=O)c(Oc2ccc(OC)cc2)c1Cl [9u],13 fold
3,COc1ccc(Oc2c(C=O)cnn(-c3ccc(C(C)C)cc3)c2=O)cc1 [9j],~ 23 fold
4,CCOC(=O)c1nn(-c2ccc(C(C)C)cc2)c(=O)c(Oc2ccc(OC)cc2)c1Cl [9s],13 fold
5,CC(C)c1ccc(-n2ncc(Cl)c(Oc3ccc(O)cc3)c2=O)cc1 [6i],~ 18 fold
6,C=Cc1cnn(-c2ccc(C(C)C)cc2)c(=O)c1Oc1ccc(OC)cc1 [9h],~9 fold
7,COc1ccc(Oc2c(C)cnn(-c3ccc(C(C)C)cc3)c2=O)cc1 [9g],~ 28 fold
8,COc1ccc(Oc2c(CO)cnn(-c3ccc(C(C)C)cc3)c2=O)cc1 [9k],~ 21 fold
9,COc1ccc(Oc2c(C#N)cnn(-c3ccc(C(C)C)cc3)c2=O)cc1 [9l],~ 15 fold
10,CC(C)c1ccc(-n2ncc(Cl)c(Oc3ccc(OC(F)(F)F)cc3)c2=O)cc1 [6j],~45 fold
11,CC(C)c1ccc(-n2ncc(Cl)c(Oc3ccc(C(=O)CN)cc3)c2=O)cc1 [6l],eightfold

# Same assay, conditions: ratio of NPBWR1 IC50 vs 1t
row,SMILES,fold decrease in potency compared to 1t
1,COc1ccc(Oc2c(Cl)c(OC)nn(-c3cccc(C)c3)c2=O)cc1 [9r],~ 3.5 fold

# Same assay, conditions: ratio of NPBWR1 IC50 vs 9a
row,SMILES,fold loss in potency compared to 9a
1,COc1ccc(Oc2c(C3CC3)cnn(-c3ccc(C)cc3)c2=O)cc1 [9f],~ eightfold

# Test system: HT29 cells
# Experiment: Viability assay on HT29 cells
# Format: cell-based
# Conditions: final tested concentration of 20 μM
row,SMILES,cytotoxicity in viability assay
1,"COc1ccc(Oc2c(Cl)cnn(-c3cc(C)cc(C)c3)c2=O)cc1 [1z, 5-chloro-2-(3,5-dimethylphenyl)-4-(4-methoxyphenoxy)pyridazin-3(2H)-one]",non cytotoxic

# Test system: Ricerca panel of 35 therapeutically relevant off-target proteins including GPCRs, enzymes and ion channels
# Experiment: Selectivity profile against Ricerca panel of 35 off-target proteins
# Conditions: at 10 μM
row,SMILES,stimulation/inhibition against the pool of tested off-targets [%]
1,"COc1ccc(Oc2c(Cl)cnn(-c3cc(C)cc(C)c3)c2=O)cc1 [1z, 5-chloro-2-(3,5-dimethylphenyl)-4-(4-methoxyphenoxy)pyridazin-3(2H)-one]",< 50
